Laboratory results reported in ChEMBL document CHEMBL1201862, “PubChem BioAssay data set” (2004).
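How tested: cells in 96-well plates exposed to compound for 48 hours at five concentrations. The concentration for 50% growth inhibition is given as GI50.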 Calls of active or inactive are those of the source. No stated cut-off is given here; in the data, active = GI50 up to about 1.1 µM and inactive = higher.

What was measured:
Assay in all cases: NCI anticancer screen, dose series, 48 h
DMS-114 = system: DMS-114
DMS-273 = system: DMS-273
HOP-18 = system: HOP-18
M19-MEL = system: M19-MEL
SNB-78 = system: SNB-78
XF498 = system: XF498
KM-20L2 = system: KM-20L2
LXFL 529 = system: LXFL 529
RXF 631 = system: RXF 631

SMILES	GI50 (DMS-114)	GI50 (DMS-273)	GI50 (HOP-18)	GI50 (M19-MEL)	GI50 (SNB-78)	GI50 (XF498)	GI50 (KM-20L2)	GI50 (LXFL 529)	GI50 (RXF 631)
O=C(CN1CCOCC1)Nc1nc(-c2ccc(Cl)cc2)cs1	21.3 µM (inactive)	17.5 µM (inactive)	38.5 µM (inactive)	32.6 µM (inactive)	25.2 µM (inactive)	13.2 µM (inactive)	–	–	–
CSCCOC(=O)C(=[N+]=[N-])c1ccc([N+](=O)[O-])cc1	> 100 µM (inactive)	> 100 µM (inactive)	–	–	–	> 100 µM (inactive)	> 100 µM (inactive)	> 100 µM (inactive)	–
CCCC[C@H](CCc1ccccc1)N(C(=O)OC)N1CCC[C@H]1COC	15.8 µM (inactive)	18.7 µM (inactive)	27.2 µM (inactive)	20.1 µM (inactive)	21.3 µM (inactive)	14 µM (inactive)	15.1 µM (inactive)	17.2 µM (inactive)	16.9 µM (inactive)
O=C(O)C12C3C4C1C1C2C3C1(Br)C41OCCO1 (stereo unspecified)	> 100 µM (inactive)	> 100 µM (inactive)	> 100 µM (inactive)	> 100 µM (inactive)	> 100 µM (inactive)	> 100 µM (inactive)	> 100 µM (inactive)	> 100 µM (inactive)	–
O=C1C=CC(=O)C2=C1[C@@H](O)C1CC=CC3C(=O)O[C@@H]2C31 (stereo partly specified)	22.7 µM (inactive)	21.9 µM (inactive)	29.4 µM (inactive)	23.2 µM (inactive)	> 42.7 µM (inactive)	22.1 µM (inactive)	23.5 µM (inactive)	15.6 µM (inactive)	–
Nc1ccc(C(=O)NN2C(=O)C(Cl)C2c2cc(Br)ccc2O)cc1 (stereo unspecified)	44.5 µM (inactive)	80.4 µM (inactive)	–	> 100 µM (inactive)	> 100 µM (inactive)	> 100 µM (inactive)	> 100 µM (inactive)	> 100 µM (inactive)	–
CC(C)C(Nc1c2ccccc2[n+](C)c2ccccc12)C(=O)O (stereo unspecified)	> 100 µM (inactive)	> 100 µM (inactive)	> 100 µM (inactive)	> 100 µM (inactive)	> 100 µM (inactive)	> 100 µM (inactive)	> 100 µM (inactive)	> 100 µM (inactive)	–
N#C/C(=C\c1c(Cl)cccc1Cl)c1ccccc1	12.4 µM (inactive)	3.35 µM (inactive)	> 50.1 µM (inactive)	8.57 µM (inactive)	11.1 µM (inactive)	8.13 µM (inactive)	3.85 µM (inactive)	33.7 µM (inactive)	7.23 µM (inactive)
CCCCC(N)CSSCC(N)CCCC (stereo unspecified)	17.7 µM (inactive)	23.4 µM (inactive)	> 100 µM (inactive)	26.2 µM (inactive)	32.7 µM (inactive)	20.3 µM (inactive)	–	16.8 µM (inactive)	–
CCCc1nc(N)nc(C(=O)Nc2cccc(C(F)(F)F)c2)c1CC	> 100 µM (inactive)	> 100 µM (inactive)	> 100 µM (inactive)	> 100 µM (inactive)	> 100 µM (inactive)	> 100 µM (inactive)	> 100 µM (inactive)	–	–
CCOC(C[C@H](O[Si](C)(C)C(C)(C)C)[C@H]1COC(=S)S1)OCC	36.7 µM (inactive)	30.1 µM (inactive)	–	35.9 µM (inactive)	–	27.2 µM (inactive)	41.4 µM (inactive)	33.1 µM (inactive)	–
CC(CCC(=O)O)c1ccc(Br)cc1 (stereo unspecified)	> 100 µM (inactive)	> 100 µM (inactive)	> 100 µM (inactive)	> 100 µM (inactive)	> 100 µM (inactive)	–	> 100 µM (inactive)	> 100 µM (inactive)	–
NC1=NCN(C2OC(CO)C(O)C2O)C(=O)N1 (stereo unspecified)	19 µM (inactive)	7.64 µM (inactive)	22.4 µM (inactive)	70.6 µM (inactive)	36.9 µM (inactive)	17.5 µM (inactive)	14.5 µM (inactive)	–	–
NCCCCNc1ccc2c(=O)[nH][nH]c(=O)c2c1	> 100 µM (inactive)	> 100 µM (inactive)	> 100 µM (inactive)	> 100 µM (inactive)	> 100 µM (inactive)	–	> 100 µM (inactive)	> 100 µM (inactive)	–
CCN(CC)c1oc(N(CC)CC)c(C(=O)Nc2ccccn2)c(=O)c1C(C)=O	> 100 µM (inactive)	> 100 µM (inactive)	–	> 100 µM (inactive)	> 100 µM (inactive)	> 100 µM (inactive)	> 10 µM (inactive)	> 100 µM (inactive)	–
NC(=S)N1N=C2c3ccccc3CC[C@H]2[C@@H]1c1cccs1	22.5 µM (inactive)	10.8 µM (inactive)	21.1 µM (inactive)	19.9 µM (inactive)	32.4 µM (inactive)	37.2 µM (inactive)	23.9 µM (inactive)	30.8 µM (inactive)	–
COc1cc2c(c(OC)c1OC)[C@@H]1CCCCC[C@@H]1CCC2=O	29.4 µM (inactive)	> 49.4 µM (inactive)	> 100 µM (inactive)	> 100 µM (inactive)	–	> 94 µM (inactive)	> 90.8 µM (inactive)	58.7 µM (inactive)	> 100 µM (inactive)
COc1ccc2nc(NC(=O)C(=O)C(C#N)c3ccc([N+](=O)[O-])cc3)sc2c1 (stereo unspecified)	43.3 µM (inactive)	> 100 µM (inactive)	99.8 µM (inactive)	> 100 µM (inactive)	> 100 µM (inactive)	–	> 100 µM (inactive)	23.6 µM (inactive)	–
CCCCCCCCCCCOc1ccc(C(=O)C(=O)c2ccc(OCCCCCCCCCCC)c(OCCCCCCCCCCC)c2)cc1OCCCCCCCCCCC	> 100 µM (inactive)	> 100 µM (inactive)	–	> 100 µM (inactive)	> 100 µM (inactive)	> 100 µM (inactive)	> 100 µM (inactive)	> 100 µM (inactive)	–
CC(=O)c1ccccc1NC(=O)C(=O)C(C(=O)c1ccc2ccccc2c1)C1OC(=O)c2ccccc21 (stereo unspecified)	7.98 µM (inactive)	6.32 µM (inactive)	14.5 µM (inactive)	8.85 µM (inactive)	9.4 µM (inactive)	3.13 µM (inactive)	32.2 µM (inactive)	9.79 µM (inactive)	–
CCc1nc(N)nc(C(=O)NCCNC(=O)c2nc(N)nc(CC)c2C)c1C	> 100 µM (inactive)	> 100 µM (inactive)	> 100 µM (inactive)	> 100 µM (inactive)	> 100 µM (inactive)	> 100 µM (inactive)	> 100 µM (inactive)	> 100 µM (inactive)	> 100 µM (inactive)
COc1cc(OC)c(/C=C2\N=C(C)N(Nc3nnc(NN4C(=O)/C(=C/c5c(OC)cc(OC)cc5OC)N=C4C)c4ccccc34)C2=O)c(OC)c1	> 100 µM (inactive)	> 100 µM (inactive)	> 100 µM (inactive)	> 100 µM (inactive)	> 100 µM (inactive)	–	> 100 µM (inactive)	> 100 µM (inactive)	–
CC(=O)OC1CCC2OOC1O2 (stereo unspecified)	> 100 µM (inactive)	> 100 µM (inactive)	–	> 100 µM (inactive)	> 100 µM (inactive)	–	> 100 µM (inactive)	–	–
CC[C@@]1(O)C(=O)OCc2c1cc1n(c2=O)Cc2cc3cc4c(cc3nc2-1)OCO4	< 0.001 µM (active)	< 0.001 µM (active)	0.0429 µM (active)	0.00787 µM (active)	0.376 µM (active)	0.0238 µM (active)	0.0121 µM (active)	0.0107 µM (active)	0.0143 µM (active)
Cc1c2cc[n+](C)cc2c(C)c2c1[nH]c1ccc(Oc3ccccc3)cc12	–	0.387 µM (active)	–	–	–	–	0.927 µM (active)	0.296 µM (active)	–
Nc1cc2[nH]cnc2c(=O)[nH]1 [DEZAGUANINE]	97.7 µM (inactive)	8.26 µM (inactive)	> 121 µM (inactive)	181 µM (inactive)	> 300 µM (inactive)	5.42 µM (inactive)	33.7 µM (inactive)	–	–
